{"source": "ChEMBL document CHEMBL1158915", "about": "“The Effect of Aridanin Isolated from Tetrapleuratetraptera and Serotonin on the Isolated Gastrointestinal Tract Smooth Muscles of Biomphalaria glabrata and Uptake of Calcium” (1990)", "key": {"Esophagus [1]": {"test_system": "Esophagus", "assay": "Effect on Biomphalaria glabrata esophageal rhythmicity assessed as increase in phasic contraction in relaxation phase at 1.92 x 10^-8 to 4 x 10^-7 M", "type": "functional, tissue-based"}, "Esophagus [2]": {"test_system": "Esophagus", "assay": "Effect on Biomphalaria glabrata esophageal rhythmicity assessed as tissue contraction in presence of 8.5 to 320 nM cyproheptadine", "type": "functional, tissue-based"}, "Esophagus [3]": {"test_system": "Esophagus", "assay": "Effect on Biomphalaria glabrata esophageal rhythmicity assessed as potentiation in amplitude of contraction at 4.8 x 10^-10 M", "type": "functional, tissue-based"}, "Biomphalaria glabrata [4]": {"test_system": "Biomphalaria glabrata", "assay": "Effect on Biomphalaria glabrata intestinal rhythmicity assessed as potentiation in amplitude of contraction at 4.8 x 10^-10 M", "type": "functional, tissue-based", "settings": "Intestine"}, "Esophagus [5]": {"test_system": "Esophagus", "assay": "Effect on Biomphalaria glabrata esophageal rhythmicity assessed as increase in contraction at 1.0 x 10^-7 to 9.6 x 10^-6 M", "type": "functional"}, "Biomphalaria glabrata [6]": {"test_system": "Biomphalaria glabrata", "assay": "Effect on Biomphalaria glabrata intestinal rhythmicity assessed as increase in contraction at 1.2 x 10^-6 to 1.9 x 10^-5 M", "type": "functional, tissue-based", "settings": "Intestine"}, "Biomphalaria glabrata [7]": {"test_system": "Biomphalaria glabrata", "assay": "Effect on Biomphalaria glabrata intestinal rhythmicity assessed as tissue contraction in presence of 8.5 to 320 nM cyproheptadine", "type": "functional, tissue-based", "settings": "Intestine"}, "Esophagus [8]": {"test_system": "Esophagus", "assay": "Effect on Biomphalaria glabrata esophageal rhythmicity assessed as tissue contraction in presence of 8.5 to 320 nM methysergide", "type": "functional, tissue-based"}, "Biomphalaria glabrata [9]": {"test_system": "Biomphalaria glabrata", "assay": "Effect on Biomphalaria glabrata intestinal rhythmicity assessed as tissue contraction in presence of 8.5 to 320 nM methysergide", "type": "functional, tissue-based", "settings": "Intestine"}, "Esophagus [10]": {"test_system": "Esophagus", "assay": "Effect on Biomphalaria glabrata esophageal rhythmicity assessed as enhanced tissue contracture at 4.0 x 10^-7 to 3 x 10^-6 M", "type": "functional, tissue-based"}, "Biomphalaria glabrata [11]": {"test_system": "Biomphalaria glabrata", "assay": "Effect on Biomphalaria glabrata intestinal rhythmicity assessed as enhanced tissue contracture at 4.0 x 10^-7 to 3 x 10^-6 M", "type": "functional, tissue-based", "settings": "Intestine"}, "Esophagus [12]": {"test_system": "Esophagus", "assay": "Effect on Biomphalaria glabrata esophageal rhythmicity assessed as potentiation of tissue contracture in presence of 0.1 uM verapamil", "type": "functional"}, "Biomphalaria glabrata [13]": {"test_system": "Biomphalaria glabrata", "assay": "Effect on Biomphalaria glabrata intestinal rhythmicity assessed as potentiation of tissue contracture in presence of 0.1 uM verapamil", "type": "functional, tissue-based", "settings": "Intestine"}, "Esophagus [14]": {"test_system": "Esophagus", "assay": "Effect on Biomphalaria glabrata esophageal rhythmicity assessed as potentiation of tissue contracture in presence of 1 to 100 nM cyproheptadine", "type": "functional, tissue-based"}, "Biomphalaria glabrata [15]": {"test_system": "Biomphalaria glabrata", "assay": "Effect on Biomphalaria glabrata intestinal rhythmicity assessed as potentiation of tissue contracture in presence of 1 to 100 nM cyproheptadine", "type": "functional, tissue-based", "settings": "Intestine"}, "Esophagus [16]": {"test_system": "Esophagus", "assay": "Effect on Biomphalaria glabrata esophageal rhythmicity assessed as potentiation of tissue contracture in presence of 0.1 mM lanthanum", "type": "functional, tissue-based"}, "Biomphalaria glabrata [17]": {"test_system": "Biomphalaria glabrata", "assay": "Effect on Biomphalaria glabrata intestinal rhythmicity assessed as potentiation of tissue contracture in presence of 0.1 mM lanthanum", "type": "functional, tissue-based", "settings": "Intestine"}, "Esophagus [18]": {"test_system": "Esophagus", "assay": "Effect on Biomphalaria glabrata esophageal rhythmicity assessed as potentiation of tissue contracture in presence of 1 to 100 nM methysergide", "type": "functional, tissue-based"}, "Biomphalaria glabrata [19]": {"test_system": "Biomphalaria glabrata", "assay": "Effect on Biomphalaria glabrata intestinal rhythmicity assessed as potentiation of tissue contracture in presence of 1 to 100 nM methysergide", "type": "functional, tissue-based", "settings": "Intestine"}, "Esophagus [20]": {"test_system": "Esophagus", "assay": "Effect on Biomphalaria glabrata esophageal rhythmicity assessed as potentiation of tissue contracture in presence of 1 uM atropine", "type": "functional, tissue-based"}, "Biomphalaria glabrata [21]": {"test_system": "Biomphalaria glabrata", "assay": "Effect on Biomphalaria glabrata intestinal rhythmicity assessed as potentiation of tissue contracture in presence of 1 uM atropine", "type": "functional, tissue-based", "settings": "Intestine"}, "Esophagus [22]": {"test_system": "Esophagus", "assay": "Effect on Biomphalaria glabrata esophageal rhythmicity assessed as potentiation of tissue contracture in presence of 10 uM propranolol", "type": "functional, tissue-based"}, "Biomphalaria glabrata [23]": {"test_system": "Biomphalaria glabrata", "assay": "Effect on Biomphalaria glabrata intestinal rhythmicity assessed as potentiation of tissue contracture in presence of 10 uM propranolol", "type": "functional, tissue-based", "settings": "Intestine"}, "Biomphalaria glabrata [24]": {"test_system": "Biomphalaria glabrata", "assay": "Inhibition of calcium uptake in Biomphalaria glabrata assessed as available calcium in test solution at 0.25 ppm after 1 week", "type": "functional"}, "Biomphalaria glabrata [25]": {"test_system": "Biomphalaria glabrata", "assay": "Inhibition of calcium uptake in Biomphalaria glabrata assessed as available calcium in test solution at 0.125 ppm after 1 week", "type": "functional"}, "Biomphalaria glabrata [26]": {"test_system": "Biomphalaria glabrata", "assay": "Inhibition of calcium uptake in Biomphalaria glabrata assessed as available calcium in test solution at 0.25 ppm after 2 weeks", "type": "functional"}, "Biomphalaria glabrata [27]": {"test_system": "Biomphalaria glabrata", "assay": "Inhibition of calcium uptake in Biomphalaria glabrata assessed as available calcium in test solution at 0.125 ppm after 2 weeks", "type": "functional"}, "Biomphalaria glabrata [28]": {"test_system": "Biomphalaria glabrata", "assay": "Inhibition of calcium uptake in Biomphalaria glabrata assessed as available calcium in test solution at 0.25 ppm after 3 weeks", "type": "functional"}, "Biomphalaria glabrata [29]": {"test_system": "Biomphalaria glabrata", "assay": "Inhibition of calcium uptake in Biomphalaria glabrata assessed as available calcium in test solution at 0.125 ppm after 3 weeks", "type": "functional"}, "Biomphalaria glabrata [30]": {"test_system": "Biomphalaria glabrata", "assay": "Inhibition of calcium uptake in Biomphalaria glabrata assessed as available calcium in test solution at 0.25 ppm after 4 weeks", "type": "functional"}, "Biomphalaria glabrata [31]": {"test_system": "Biomphalaria glabrata", "assay": "Inhibition of calcium uptake in Biomphalaria glabrata assessed as available calcium in test solution at 0.125 ppm after 4 weeks", "type": "functional"}, "Biomphalaria glabrata [32]": {"test_system": "Biomphalaria glabrata", "assay": "Inhibition of calcium uptake in Biomphalaria glabrata assessed as available calcium in test solution at 0.25 ppm after 5 weeks", "type": "functional"}, "Biomphalaria glabrata [33]": {"test_system": "Biomphalaria glabrata", "assay": "Inhibition of calcium uptake in Biomphalaria glabrata assessed as available calcium in test solution at 0.125 ppm after 5 weeks", "type": "functional"}, "Biomphalaria glabrata [34]": {"test_system": "Biomphalaria glabrata", "assay": "Inhibition of calcium uptake in Biomphalaria glabrata assessed as available calcium in test solution at 0.25 ppm after 6 weeks", "type": "functional"}, "Biomphalaria glabrata [35]": {"test_system": "Biomphalaria glabrata", "assay": "Inhibition of calcium uptake in Biomphalaria glabrata assessed as available calcium in test solution at 0.125 ppm after 6 weeks", "type": "functional"}, "Biomphalaria glabrata [36]": {"test_system": "Biomphalaria glabrata", "assay": "Inhibition of calcium uptake in Biomphalaria glabrata assessed as available calcium in test solution at 0.25 ppm after 7 weeks", "type": "functional"}, "Biomphalaria glabrata [37]": {"test_system": "Biomphalaria glabrata", "assay": "Inhibition of calcium uptake in Biomphalaria glabrata assessed as available calcium in test solution at 0.125 ppm after 7 weeks", "type": "functional"}, "Biomphalaria glabrata [38]": {"test_system": "Biomphalaria glabrata", "assay": "Inhibition of calcium uptake in Biomphalaria glabrata assessed as available calcium in test solution at 0.25 ppm after 8 weeks", "type": "functional"}, "Biomphalaria glabrata [39]": {"test_system": "Biomphalaria glabrata", "assay": "Inhibition of calcium uptake in Biomphalaria glabrata assessed as available calcium in test solution at 0.125 ppm after 8 weeks", "type": "functional"}, "Biomphalaria glabrata [40]": {"test_system": "Biomphalaria glabrata", "assay": "Inhibition of calcium uptake in Biomphalaria glabrata assessed as available calcium in test solution at 0.25 ppm after 9 weeks", "type": "functional"}, "Biomphalaria glabrata [41]": {"test_system": "Biomphalaria glabrata", "assay": "Inhibition of calcium uptake in Biomphalaria glabrata assessed as available calcium in test solution at 0.125 ppm after 9 weeks", "type": "functional"}, "Biomphalaria glabrata [42]": {"test_system": "Biomphalaria glabrata", "assay": "Inhibition of calcium uptake in Biomphalaria glabrata assessed as available calcium in test solution at 0.25 ppm after 10 weeks", "type": "functional"}, "Biomphalaria glabrata [43]": {"test_system": "Biomphalaria glabrata", "assay": "Inhibition of calcium uptake in Biomphalaria glabrata assessed as available calcium in test solution at 0.125 ppm after 10 weeks", "type": "functional"}}, "note": "Active and inactive are the calls of the source. No cut-off for these calls is given here."}
{"molecule": "NCCc1c[nH]c2ccc(O)cc12", "values": [{"measurement": "Activity", "setting": "Esophagus [1]", "result": "Active"}, {"measurement": "Activity", "setting": "Esophagus [2]", "result": "inactive"}, {"measurement": "Activity", "setting": "Esophagus [3]", "result": "Active"}, {"measurement": "Activity", "setting": "Biomphalaria glabrata [4]", "result": "Active"}, {"measurement": "Activity", "setting": "Esophagus [5]", "result": "Active"}, {"measurement": "Activity", "setting": "Biomphalaria glabrata [6]", "result": "Active"}, {"measurement": "Activity", "setting": "Biomphalaria glabrata [7]", "result": "inactive"}, {"measurement": "Activity", "setting": "Esophagus [8]", "result": "inactive"}, {"measurement": "Activity", "setting": "Biomphalaria glabrata [9]", "result": "inactive"}]}
{"molecule": "CC(=O)N[C@H]1[C@H](O[C@H]2CC[C@]3(C)[C@H]4CC=C5[C@H]6CC(C)(C)CC[C@]6(C(=O)O)CC[C@@]5(C)[C@]4(C)CC[C@H]3C2(C)C)O[C@H](CO)[C@@H](O)[C@@H]1O", "note": "[ARIDANIN]", "values": [{"measurement": "Activity", "setting": "Esophagus [10]", "result": "Active"}, {"measurement": "Activity", "setting": "Biomphalaria glabrata [11]", "result": "Active"}, {"measurement": "Activity", "setting": "Esophagus [12]", "result": "inactive"}, {"measurement": "Activity", "setting": "Biomphalaria glabrata [13]", "result": "inactive"}, {"measurement": "Activity", "setting": "Esophagus [14]", "result": "inactive"}, {"measurement": "Activity", "setting": "Biomphalaria glabrata [15]", "result": "inactive"}, {"measurement": "Activity", "setting": "Esophagus [16]", "result": "inactive"}, {"measurement": "Activity", "setting": "Biomphalaria glabrata [17]", "result": "inactive"}, {"measurement": "Activity", "setting": "Esophagus [18]", "result": "Active"}, {"measurement": "Activity", "setting": "Biomphalaria glabrata [19]", "result": "Active"}, {"measurement": "Activity", "setting": "Esophagus [20]", "result": "Active"}, {"measurement": "Activity", "setting": "Biomphalaria glabrata [21]", "result": "Active"}, {"measurement": "Activity", "setting": "Esophagus [22]", "result": "Active"}, {"measurement": "Activity", "setting": "Biomphalaria glabrata [23]", "result": "Active"}, {"measurement": "Activity", "setting": "Biomphalaria glabrata [24]", "result": 28.3, "unit": "ppm"}, {"measurement": "Activity", "setting": "Biomphalaria glabrata [25]", "result": 28.2, "unit": "ppm"}, {"measurement": "Activity", "setting": "Biomphalaria glabrata [26]", "result": 19.8, "unit": "ppm"}, {"measurement": "Activity", "setting": "Biomphalaria glabrata [27]", "result": 19.9, "unit": "ppm"}, {"measurement": "Activity", "setting": "Biomphalaria glabrata [28]", "result": 24.2, "unit": "ppm"}, {"measurement": "Activity", "setting": "Biomphalaria glabrata [29]", "result": 22.2, "unit": "ppm"}, {"measurement": "Activity", "setting": "Biomphalaria glabrata [30]", "result": 26.5, "unit": "ppm"}, {"measurement": "Activity", "setting": "Biomphalaria glabrata [31]", "result": 28.9, "unit": "ppm"}, {"measurement": "Activity", "setting": "Biomphalaria glabrata [32]", "result": 19, "unit": "ppm"}, {"measurement": "Activity", "setting": "Biomphalaria glabrata [33]", "result": 18.7, "unit": "ppm"}, {"measurement": "Activity", "setting": "Biomphalaria glabrata [34]", "result": 52.5, "unit": "ppm"}, {"measurement": "Activity", "setting": "Biomphalaria glabrata [35]", "result": 51.1, "unit": "ppm"}, {"measurement": "Activity", "setting": "Biomphalaria glabrata [36]", "result": 73, "unit": "ppm"}, {"measurement": "Activity", "setting": "Biomphalaria glabrata [37]", "result": 68.7, "unit": "ppm"}, {"measurement": "Activity", "setting": "Biomphalaria glabrata [38]", "result": 47.7, "unit": "ppm"}, {"measurement": "Activity", "setting": "Biomphalaria glabrata [39]", "result": 49.8, "unit": "ppm"}, {"measurement": "Activity", "setting": "Biomphalaria glabrata [40]", "result": 70.8, "unit": "ppm"}, {"measurement": "Activity", "setting": "Biomphalaria glabrata [41]", "result": 69.6, "unit": "ppm"}, {"measurement": "Activity", "setting": "Biomphalaria glabrata [42]", "result": 90.4, "unit": "ppm"}, {"measurement": "Activity", "setting": "Biomphalaria glabrata [43]", "result": 89, "unit": "ppm"}]}
